Results: patent EP3683219A1, “COMPOUND INHIBITING BUTYRYLCHOLINESTERASE” (Julius-Maximilians-Universität Würzburg, priority 2019, dated 2020)
Where two headings read alike, the source gives them in different places.

Tests used:
[1] = test system: Aβ25-35-induced passive avoidance impairments; test: Step-through passive avoidance test, Aβ25-35-injected mice; assay type: in vivo, male Swiss mice; settings: 0.3-3 mg/kg ip o.d. day 1 to 7; retention day 10
[2] = target: T1, hBChE (Homo sapiens, UniProt P06276); test: biochemical; assay type: biochemical; settings: for Selectivity index (IC50 hAChE/IC50 hBChE): hAChE over hBChE; for IC50 values (hBChE), in words: linker of 4 methylene groups; for fold lower activity than heptyl carbamate 7 (IC50 hBChE): compared with compound 7
Description: (§1) For evaluation of enzyme inhibition, Ellman's colorimetric assay was conducted as described in Ellman, G. L., Arch. Biochem. Biophys 1958, 74, 443-450 and Ellman, G. L. et al., Biochem. Pharmacol. 1961, 7, 88-95. Therefor, 5,5'-dithiobis-(2-nitrobenzoic acid) (DTNB) solution, respective Cholinesterase (ChE) and inhibitor were incubated together and enzyme activity was measured after 20 min. The long incubation time was needed to allow the carbamate transfer between ChE and inhibitor.
(§2) The carbamate residue was altered systematically by changing residues in the terminal position of carbamate moiety and different flexible alkylene linkers were introduced. […] Nevertheless, it must be noted that IC50 values only serve as a first indicator of inhibitor affinity and selectivity. Due to the chemical reaction of carbamate transfer the enzyme inhibition is strongly time dependent. […]

[3] = test system: Aβ25-35-induced spontaneous alternation deficits; test: Spontaneous alternation test in the Y-maze, Aβ25-35-injected mice; assay type: in vivo, male Swiss mice; settings: 0.3-3 mg/kg ip o.d. day 1 to 7; Y-maze day 8
Description: 2013, 38, pages 1706-1723.
AD-like cognitive dysfunctions were induced in male Swiss mice, 6 weeks old, weighing 31-36 g by intracerebroventricular (icv) injection of the oligomerized Aβ25-35 peptide into the mouse brain on day 1.
Compounds were weighed, dissolved in pure DMSO at a concentration of 1 mg/ml and diluted into final test concentrations with saline. The final percentage of DMSO in saline was 60% for all compounds. Vehicle solution used for control groups was 60% DMSO in saline. Compounds were injected intraperitoneally (ip) from day 1 to 7 and behavioral studies were conducted between day 8 and 10. Spatial working memory was evaluated using a spontaneous alternation test in a Y-maze on day 8. The Y-maze is made of grey polyvinylchloride. Each arm is 40 cm long, 13 cm high, 3 cm wide at the bottom, 10 cm wide at the top, and converging at an equal angle. Each mouse is placed at the end of one arm and allowed to explore the maze freely for 8 min. The sequence of arm entries (including possible returns into the same arm) was checked visually and noted down. If the mouse enters all three arms on consecutive occasion, this is defined as an alternation. Therefore, the total number of arm entries minus two is also the maximum number of alternations. The percentage of alternation was calculated as (actual alternations / maximum alternations) x 100. Parameters for the evaluation of behavior are given as the percentage of alternation (memory index) and a total number of arm entries (exploration index).
Figs. 7a-h show the effect of the compounds on Aβ25-35-induced spontaneous alternation deficits in mice. […] Figs. 7a, c, e, g: spontaneous alternation performance; Figs. 7b, d, f, h: number of arm entries in the Y-maze test performed at day 8.

[4] = target: hAChE (Homo sapiens, UniProt P22303); test: Ellman's colorimetric assay, inhibition of hAChE; assay type: biochemical; settings: for inhibition at 100 µM / inhibition at 25 µM: read-out: inhibition of hAChE; for IC50 / plC50 ± SEM (hAChE): enzyme activity measured after 20 min incubation
Description: as §1, §2

[5] = target: T1, hBChE; test: Decarbamoylation from hBChE, dilution experiments (recovery of enzyme activity, k4); assay type: biochemical; settings: decarbamoylation rate, after 1 h incubation and 1:1000 dilution
Description: To further investigate the presence and nature of a peripheral binding site, also the hydrolysis of carbamate and the resulting release of the inhibitor from the enzyme was investigated by measuring the time dependent recovery of enzyme activity. To measure the decarbamoylation rate k4, dilution experiments were performed with hBChE following the procedure described in Sawatzky, E. et al., ChemMedChem 2016, 11, 1540-1550 and in Bartolucci, C. et al., Biochem. J. 2012, 444, 269-277. A high concentration of enzyme and inhibitor where incubated for 1 h. The concentration of inhibitor was chosen, such that > 85% of hBChE was inhibited through carbamate transfer. Then the mixture was diluted with buffer 1:1000 to a concentration at which the enzyme is not further carbamoylated. Due to the hydrolysis and release of the carbamate from the catalytic active serine enzyme activity was recovered slowly. This regeneration of the enzyme was monitored at different time points after the dilution. […] A = (1−e^(k4 ⋅t))⋅(1−A0) + A0 [formula] Table 4. Kinetic values for decarbamoylation from hBChE of selected compounds

[6] = target: T1, hBChE; test: Carbamoylation kinetics on hBChE (time-dependent inhibition, Kc and k3); assay type: biochemical; settings: for k3 [min^-1] hBChE: carbamoylation rate constant; for Kd: carbamoylation, pre-equilibrium constant
From the text: As carbamate based inhibitors (C-X) show a pseudo irreversible manner of binding, the IC50 values must be seen critically because two chemical reactions determine them: Carbamate (C) transfer onto the enzyme (E) and carbamate hydrolysis. So, the Kc values, k3 and k4 rate constants according to below formula were investigated for some representative compounds (c.f. Fig. 3 and Fig. 4). [formula]
The mechanism of enzyme inhibition can be divided into three steps: In a pre-equilibrium, the carbamate based inhibitor C-X is bound to the enzyme E and a complex (EC-X) is formed reversible and can be characterized with Kc. Then the carbamate C is transferred onto the enzyme E and binds covalently to form E-C with the rate constant k3 while carrier scaffold X is released. Then E-C is hydrolyzed and enzyme activity is recovered and the amine C' is released with the rate constant k4, also called decarbamoylation rate.
For the determination of Kc and k3 a similar experimental setup was used compared to the evaluation of IC50 values, whereas enzyme activity was measured at various time points after addition of inhibitor.
A = A0 ⋅e^(−kobs ⋅t) + A∞ [formula]
Plotting the enzyme activity (in %) against the incubation times, lead to nonlinear time-dependent inhibition curves for the respective inhibitor concentrations whereby kobs can be determined with an exponential fit correspondent to equation (I).
Furthermore, a hyperbolic curve is obtained, plotting the rate constant kobs against the inhibitor concentration [I], which is described by equation (II), with the substrate concentration [S] and the Michaelis-Menten constant KM. kobs = (k3 ⋅[I])/(KC ⋅(1+([S])/(KM)) + [I]) [formula]
This equation (II) can be rearranged to the reciprocal of kobs, to get a linear plot: (1)/(kobs) = (KC ⋅(1+([S])/(KM)))/(k3)⋅(1)/([I]) + (1)/(k3) [formula]
Since the substrate butyrylthiocholine iodide is not added directly to the enzyme and the inhibitor, but after the incubation of enzyme with inhibitor, [S] can be set to zero, leading to Michaelis-Menten like equation IV. (1)/(kobs) = (KC)/(k3)⋅(1)/([I]) + (1)/(k3) [formula]
Relating to the linear equation (IV), KC can be established from the slope and carbamoylation rate constant k3 from the y-intercept.
As a chemical reaction is taking place, Kc must be seen as a 'real' measure for quantification of enzyme inhibitor interactions. Due to the high costs in measurements on hBChE only some representative compounds were chosen to evaluate also in kinetic studies based on the results from IC50 measurements (table 3). Table 3. Kinetic values for carbamoylation on hBChE for selected representative compounds

[7] = enzyme activity measured after 20 min incubation
[8] = enzyme activity measured after 20 min incubation, read-out: IC50 hBChE

Chain of hAChE (P22303 32-614): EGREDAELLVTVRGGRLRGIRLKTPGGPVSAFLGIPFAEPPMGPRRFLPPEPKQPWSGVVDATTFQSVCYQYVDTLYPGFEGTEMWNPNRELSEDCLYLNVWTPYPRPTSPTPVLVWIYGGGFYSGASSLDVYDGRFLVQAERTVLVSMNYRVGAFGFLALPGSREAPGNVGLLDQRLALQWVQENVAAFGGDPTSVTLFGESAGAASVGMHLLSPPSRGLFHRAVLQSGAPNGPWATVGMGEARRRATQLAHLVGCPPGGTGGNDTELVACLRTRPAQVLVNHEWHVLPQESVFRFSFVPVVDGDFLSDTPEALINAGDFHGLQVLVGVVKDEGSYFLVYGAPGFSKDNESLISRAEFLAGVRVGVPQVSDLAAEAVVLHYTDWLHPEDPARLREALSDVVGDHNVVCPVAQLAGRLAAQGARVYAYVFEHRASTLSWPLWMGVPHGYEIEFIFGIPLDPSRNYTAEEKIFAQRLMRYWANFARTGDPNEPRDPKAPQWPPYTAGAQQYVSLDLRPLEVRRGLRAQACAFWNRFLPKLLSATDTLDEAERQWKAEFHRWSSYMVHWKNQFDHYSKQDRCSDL
T1 sequence (P06276 29-602): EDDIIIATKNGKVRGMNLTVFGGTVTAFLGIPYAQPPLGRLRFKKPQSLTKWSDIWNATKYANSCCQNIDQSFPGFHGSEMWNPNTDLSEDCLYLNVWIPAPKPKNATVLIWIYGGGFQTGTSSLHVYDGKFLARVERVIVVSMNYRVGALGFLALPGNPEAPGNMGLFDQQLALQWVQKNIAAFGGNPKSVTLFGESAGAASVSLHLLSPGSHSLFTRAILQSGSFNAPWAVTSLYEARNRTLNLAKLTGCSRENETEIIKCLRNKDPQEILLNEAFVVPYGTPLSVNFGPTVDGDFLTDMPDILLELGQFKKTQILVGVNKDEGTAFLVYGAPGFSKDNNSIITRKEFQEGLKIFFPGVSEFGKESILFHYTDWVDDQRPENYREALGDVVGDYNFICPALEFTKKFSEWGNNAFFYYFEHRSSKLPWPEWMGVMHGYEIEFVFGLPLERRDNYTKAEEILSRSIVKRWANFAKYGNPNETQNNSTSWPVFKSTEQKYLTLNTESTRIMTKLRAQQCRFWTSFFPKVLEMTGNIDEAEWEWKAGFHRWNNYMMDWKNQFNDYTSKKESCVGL

SMILES | plC50 ± SEM (hBChE) [2, 7] | IC50 [2, 8] [nM] | Selectivity index (IC50 hAChE/IC50 hBChE) [2] | k4 [5] [h⁻¹] | k3 [min^-1] hBChE [6] [min⁻¹] | Kd [6] [nM] | also measured
CN1c2ccc(O)cc2CN2CCc3ccccc3C21 (stereo not shown) [Compound 13, reference compound] |  |  |  |  |  |  | effect on Aβ25-35-induced passive avoidance deficits (step-through latency, retention) [1]: not active; BChE inhibition, in words [2]: lacking BChE inhibition; effect on Aβ25-35-induced spontaneous alternation deficits [3]: not active
CN1c2ccc(OC(=O)NCCN3CCOCC3)cc2CN2CCc3ccccc3C21 (stereo not shown) [Compound 19a] | 5.11 ± 0.04 | 7770 | >10 |  |  |  | inhibition at 100 µM ([4]; 100 µM): 17%
CN1c2ccc(OC(=O)NCCCN3CCOCC3)cc2CN2CCc3ccccc3C21 (stereo not shown) [Compound 19b] | 6.03 ± 0.02 | 938 | >100 |  |  |  | inhibition at 100 µM ([4]; 100 µM): 13%
CN1c2ccc(OC(=O)NCCCCN3CCOCC3)cc2CN2CCc3ccccc3C21 (stereo not shown) [Compound 19c] | 7.30 ± 0.02 | 50.6 | >1000 | 0.48 ± 0.06 |  |  | inhibition at 100 µM ([4]; 100 µM): 13%; IC50 values (hBChE), in words [2]: two-digit nanomolar
CN1c2ccc(OC(=O)NCCCCCCCCN3CCOCC3)cc2CN2CCc3ccccc3C21 (stereo not shown) [Compound 19e] |  | 19.8 | >1000 | 1.58 ± 0.15 |  |  | inhibition at 100 µM [4]: 22%; IC50 [2]: 85.1 nM
CN1c2ccc(OC(=O)NCCCCCCCCCCN3CCOCC3)cc2CN2CCc3ccccc3C21 (stereo not shown) [Compound 19f] | 7.94 ± 0.07 | 11.5 | >1000 |  |  |  | inhibition at 100 µM ([4]; 100 µM): 25%
CN1c2ccc(OC(=O)NCCN3CCc4ccccc4C3)cc2CN2CCc3ccccc3C21 (stereo not shown) [Compound 19g] | 5.76 ± 0.05 | 1720 | >10 |  | >20 | > 200000 | inhibition at 10 µM [4]: 10%
CN1c2ccc(OC(=O)NCCCN3CCc4ccccc4C3)cc2CN2CCc3ccccc3C21 (stereo not shown) [Compound 19h] | 5.94 ± 0.05 | 1160 | >10 |  |  |  | inhibition at 10 µM [4]: 12%
CN1c2ccc(OC(=O)NCCCCN3CCc4ccccc4C3)cc2CN2CCc3ccccc3C21 (stereo not shown) [Compound 19i] | 6.72 ± 0.06 | 192 | >100 | 0.028 ± 0.001 |  |  | inhibition at 10 µM [4]: 16%; IC50 values (hBChE), in words [2]: two-digit nanomolar
CN1c2ccc(OC(=O)NCCCCCCCCN3CCc4ccccc4C3)cc2CN2CCc3ccccc3C21 (stereo not shown) [Compound 19k] | 7.49 ± 0.03 | 32.6 | >1000 | 0.83 ± 0.06 |  |  | inhibition at 10 µM [4]: 11%
CN1c2ccc(OC(=O)NCCCCCCCCCCN3CCc4ccccc4C3)cc2CN2CCc3ccccc3C21 (stereo not shown) [Compound 19l] | 7.38 ±0.04 | 41.8 | >1000 |  | 0.25 ± 0.04 | 5.68 ± 2.19 | Kc values (hBChE), in words [6]: one-digit nanomolar range; inhibition at 10 µM [4]: 15%
CN1c2ccc(OC(=O)NCCCCCCn3cnc4ccccc43)cc2CN2CCc3ccccc3C21 (stereo not shown) [Compound 19m] | 8.13 ± 0.04 | 7.4 | >1000 | 0.45 ± 0.04 | 0.26 ± 0.09 | 7.7 ± 4.6 | Kc values (hBChE), in words [6]: one-digit nanomolar range; inhibition at 25 µM ([4]; 25 µM): 44%
CN1c2ccc(OC(=O)NCCCCCCn3ccnc3)cc2CN2CCc3ccccc3C21 (stereo not shown) [Compound 19n] | 7.88 ± 0.06 | 13.3 | >1000 | 0.82 ± 0.03 | 0.31 ± 0.15 | 13.1 ± 14.4 | Kc values (hBChE), in words [6]: one-digit nanomolar range; inhibition at 25 µM ([4]; 25 µM): 18%
CN1c2ccc(OC(=O)NCCCCCCN3CCCC3)cc2CN2CCc3ccccc3C21 (stereo not shown) [Compound 19o] |  | 34.3 | 26 | 0.98 ± 0.04 |  |  | IC50 [4]: 880 nM; plC50 ± SEM (hAChE) [4]: 6.06 ± 0.03; IC50 [2]: 339 nM; fold lower activity than heptyl carbamate 7 (IC50 hBChE) [2]: approximately 10 fold
CN1c2ccc(OC(=O)NCCCCCCN3CCCCC3)cc2CN2CCc3ccccc3C21 (stereo not shown) [Compound 19p] | 7.08 ± 0.04 | 83.7 | 14 | 0.129 ± 0.006 |  |  | IC50 [4]: 1200 nM; plC50 ± SEM (hAChE) [4]: 5.91 ± 0.03; fold lower activity than heptyl carbamate 7 (IC50 hBChE) [2]: approximately 10 fold
CN1c2ccc(OC(=O)NCCCCCCN3CCN(C(=O)OC(C)(C)C)CC3)cc2CN2CCc3ccccc3C21 (stereo not shown) [Compound 19q] |  | 123 | >100 |  | 0.70 ± 0.31 | 1550 ± 827 | inhibition at 25 µM [4]: 15%; IC50 [2]: 794 nM
CN1c2ccc(OC(=O)NCCCCCCN3CCNCC3)cc2CN2CCc3ccccc3C21 (stereo not shown) [Compound 19r] | 7.09 ± 0.03 | 80.6 | >100 | 1.44 ± 0.07 | 0.32 ± 0.13 | 121 ± 116 | inhibition at 25 µM ([4]; 25 µM): 16%
